Measured values taken from a melting point compilation (Tetko et al.; mined from patent text by program, amines drawn as free bases though some values may be those of a salt).

melting point [°C] | Structure (SMILES)
116 to 117 | COc1ccc(C2=NN(C3CCOCC3)C(=O)[C@H]3CC=CC[C@@H]23)cc1OC1CCCC1 (relative stereo)
181 | CC(CS)C(=O)NC(CC(N)=O)C(=O)O (configuration not stated)
196 to 198 | C#CCN1C(=O)COc2cc(F)c(-n3nc4ccc(Cl)cn4c3=O)cc21
166 to 169 | COc1cc2c(cc1OC)CN(c1nc(N3CCc4cc(OC)c(OC)cc4C3)nc(N3CCc4cc(OC)c(OC)cc4C3)n1)CC2
190 | CC(C)(C)CC1N(C(c2ccccc2)C(O)c2ccccc2)C(C(=O)NC2CCC(O)CC2)C(c2cccc(Cl)c2F)C12C(=O)Nc1cc(Cl)ccc12 (configuration not stated)
174 to 176 | CC(C)(O)CNc1nccc(-c2c(-c3ccc(F)cc3F)nc3c(CC4CC4)nccn23)n1
212 to 214 | CCCn1cnc(COc2nn3c(-c4ccccc4)nnc3cc2-c2ccccc2)n1
175 to 177 | Cn1c(-c2ccc(OC3CCN(C4CCCC4)CC3)cc2)nc2ncccc2c1=O
89 to 90 | CCNC(=C[N+](=O)[O-])NCCSCc1csc(CN(C)C)n1
196 | COC(=O)c1ccc2cc(O)ccc2c1
> 350 | COC(=O)c1ccc(C(=O)NC2CCC(NC(=O)c3ccc(C(=O)OC)cc3)CC2)cc1 (configuration not stated)
254 to 256 | Cc1c(Cl)cccc1S(=O)(=O)Nc1ccc2c(c1)nc(C)n2-c1ccccc1
155 to 157 | CN1CCN(c2ccccc2C=C2SCCN(c3ccc(Cl)c(Cl)c3)C2=O)CC1
189 | CN(c1cccc2cc(-c3nccs3)[nH]c12)S(=O)(=O)c1ccsc1COCC(=O)O
136 to 137 | CC(=O)CC(=O)C=Cc1ccc2[nH]ccc2c1
205 to 207 | CCCn1c(=O)c2[nH]c(-c3cc(C)n(CC(=O)Nc4ccc(F)cc4)n3)nc2n(CCC)c1=O
202 to 204 | Cc1cc(COC2=NS(=O)(=O)c3ccccc32)sn1
174 to 176 | O=C(Nc1ccccc1)N1CC(Oc2ccc(C(F)(F)F)cc2)C1
131 to 144 | C#CCOC(=O)c1ccccc1C1=NC(=O)C(C)(C(C)C)N1 (configuration not stated)

melting point [°C] | Structure (SMILES)
99 to 101 | Cc1cn(C2(C(=O)N(C)C)CCCC2)nc1-c1ccccc1
174 | CSC(C(N)=O)c1cc(Cl)cc(C(=O)c2ccccc2)c1N (configuration not stated)
153 to 156 | Fc1ccc(-c2ccc3nnn(Cc4ccc5ncccc5c4)c3n2)cc1
152 to 154 | CC(C)(C)OC(=O)Nc1ccc(C#Cc2ccc(OC(F)(F)F)cc2)cc1NC(=O)CC(=O)c1cccc(C#N)c1
206 to 211 | Cc1ccc(S(=O)(=O)n2cc(C(C)O)c3ccc(C(=O)Nc4c(Cl)cncc4Cl)cc32)cc1 (configuration not stated)
209 to 210 | OC1CSC(Oc2ccc(F)nc2)C(O)C1O (configuration not stated)
165 to 167 | O=c1cc(O)c(Cl)cn1COCc1ccccc1
233 to 234 | O=C(Cc1ccc(OC2Cc3ccccc3C2)cc1)NC1(C(=O)O)Cc2ccc(-c3ccc(Cl)cc3)cc2C1 (configuration not stated)
72 to 75 | O=C(c1ccccc1)c1ccc(S)cc1
158 to 160 | CN(C)CCOc1ccc2nc(C#N)nc(NC3CCCC3)c2c1
113 to 115 | CN(C)c1ccc(CC(OCC(O)CN2CCCCC2)C(=O)c2ccccc2)cc1 (configuration not stated)
176 to 178 | CC(=O)N(c1cc2occc(=O)c2cc1Oc1ccc(F)cc1F)S(C)(=O)=O
104 | CC(C)(C)CC(C)(C)NSc1nc2ccccc2s1
211 to 212 | O=C(NS(=O)(=O)c1cc(C(F)(F)F)ccc1Cl)c1cn2cc(C(F)(F)F)cnc2n1
103 to 106 | CN1C(c2ccncc2)CC(=O)CC1c1ccncc1 (configuration not stated)
144 to 145 | CSc1nccc(-c2c(-c3ccc(F)cc3)nc3occn23)n1
85.5 to 87.5 | COC(=O)COc1ccc(NC(=O)OCCO)cc1
104 to 106 | COc1nc(C)c(C)nc1N(C)C(=O)N1CCN(c2cc(F)cc(F)c2)CC1
